Assay results taken from article PMC7360862, “Sub-Acute Treatment of Curcumin Derivative J147 Ameliorates Depression-Like Behavior Through 5-HT1A-Mediated cAMP Signaling” (Frontiers in Neuroscience, 2020).

What was measured:
[1] = biological target: T1, 5-HT1B receptor (Mus musculus, UniProt P28334); experiment: competitive radioligand binding, mouse frontal cortex membranes
T1 construct: gene Htr1b; native receptor in mouse frontal cortex membranes

[2] = biological target: T2, 5-HT1A receptor (Mus musculus, UniProt Q64264); experiment: competitive radioligand binding ([3H]-8-OH-DPAT displacement), mouse frontal cortex membranes
T2 construct: gene Htr1a; native receptor in mouse frontal cortex membranes
T2 sequence (Q64264 1-421): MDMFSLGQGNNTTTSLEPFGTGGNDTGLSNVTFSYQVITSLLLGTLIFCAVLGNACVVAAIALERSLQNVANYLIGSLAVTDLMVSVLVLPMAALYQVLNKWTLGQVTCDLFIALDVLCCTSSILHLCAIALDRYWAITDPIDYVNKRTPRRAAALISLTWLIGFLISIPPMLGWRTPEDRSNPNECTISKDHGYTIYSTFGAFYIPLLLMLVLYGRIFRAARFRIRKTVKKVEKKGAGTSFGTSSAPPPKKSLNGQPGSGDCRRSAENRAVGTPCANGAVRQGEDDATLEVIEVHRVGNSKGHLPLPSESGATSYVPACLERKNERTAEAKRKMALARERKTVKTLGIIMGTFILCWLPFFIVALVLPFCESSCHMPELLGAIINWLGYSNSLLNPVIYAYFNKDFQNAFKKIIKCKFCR

[3] = biological target: T1, 5-HT1B receptor; experiment: competitive radioligand binding, mouse frontal cortex membranes, reference antagonist measured in the same laboratory

T1 sequence (P28334 whole entry): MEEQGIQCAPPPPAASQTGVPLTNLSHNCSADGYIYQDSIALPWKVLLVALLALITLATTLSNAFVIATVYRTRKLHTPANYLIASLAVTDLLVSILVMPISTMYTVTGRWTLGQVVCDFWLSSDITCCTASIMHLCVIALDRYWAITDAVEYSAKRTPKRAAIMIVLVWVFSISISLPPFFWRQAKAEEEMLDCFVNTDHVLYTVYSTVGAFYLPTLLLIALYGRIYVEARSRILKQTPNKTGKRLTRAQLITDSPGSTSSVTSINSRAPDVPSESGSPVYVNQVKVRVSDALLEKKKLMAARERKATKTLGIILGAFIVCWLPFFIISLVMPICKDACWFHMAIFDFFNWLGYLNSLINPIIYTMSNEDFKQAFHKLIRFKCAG

Ki [1] | Ki [2] | SMILES | Ki [3]
612 nM | 0.42 nM | COc1cccc(/C=N/N(C(=O)C(F)(F)F)c2ccc(C)cc2C)c1 [J147] | 
 |  | COc1ccc(NC(=O)c2ccc(-c3ccc(-c4noc(C)n4)cc3C)cc2)cc1N1CCN(C)CC1 [GR-127935] | 1.29 nM
